Source: patent publication US10053417B2, “Neprilysin inhibitors” (THERAVANCE BIOPHARMA R&D IP, LLC, priority 2013, dated 2018)

target: T1, human NEP (Homo sapiens, UniProt P08473); assay: In vitro enzyme inhibition assay, inhibitor potency at human NEP (Assay 1); type: biochemical; details: recombinant human NEP; fluorogenic peptide substrate 10 μM; 37° C.; values given as ranges
T1 construct: purchased R&D Systems, Minneapolis, Minn; 1182-ZN
Method: The inhibitory activities of compounds at human and rat neprilysin (EC 3.4.24.11; NEP) and human angiotensin converting enzyme (ACE) were determined using in vitro assays as described below.
Recombinant human NEP and recombinant human ACE were obtained commercially (R&D Systems, Minneapolis, Minn., catalog numbers 1182-ZN and 929-ZN, respectively). The fluorogenic peptide substrate Mca-D-Arg-Arg-Leu-Dap-(Dnp)-OH (Medeiros et al. (1997) Braz. J. Med. Biol. Res. 30:1157-62; Anaspec, San Jose, Calif.) and Abz-Phe-Arg-Lys(Dnp)-Pro-OH (Araujo et al. (2000) Biochemistry 39:8519-8525; Bachem, Torrance, Calif.) were used in the NEP and ACE assays respectively.
The assays were performed in 384-well white opaque plates at 37° C. using the fluorogenic peptide substrates at a concentration of 10 μM in Assay Buffer (NEP: 50 mM HEPES, pH 7.5, 100 mM NaCl, 0.01% polyethylene glycol sorbitan monolaurate (Tween-20), 10 μM ZnSO4; ACE: 50 mM HEPES, pH 7.5, 100 mM NaCl, 0.01% Tween-20, 1 μM ZnSO4).
Test compounds were assayed over the range of concentrations from […] to 20 μM. Test compounds were added to the enzymes and incubated for 30 minute at 37° C. prior to initiating the reaction by the addition of substrate. Reactions were terminated after 20 minutes of incubation at 37° C. by the addition of glacial acetic acid to a final concentration of 3.6% (v/v).
Plates were read on a fluorometer with excitation and emission wavelengths set to 320 nm and 405 nm, respectively. Inhibition constants were obtained by nonlinear regression of the data using the equation (GraphPad Software, Inc., San Diego, Calif.): ν=ν0/[1+(I/K′)] where ν is the reaction rate, ν0 is the uninhibited reaction rate, I is the inhibitor concentration and K′ is the apparent inhibition constant.
Compounds of the invention were tested in this assay and found to have pKi values at human NEP as follows.

T1 sequence (P08473 52-750 limits assumed): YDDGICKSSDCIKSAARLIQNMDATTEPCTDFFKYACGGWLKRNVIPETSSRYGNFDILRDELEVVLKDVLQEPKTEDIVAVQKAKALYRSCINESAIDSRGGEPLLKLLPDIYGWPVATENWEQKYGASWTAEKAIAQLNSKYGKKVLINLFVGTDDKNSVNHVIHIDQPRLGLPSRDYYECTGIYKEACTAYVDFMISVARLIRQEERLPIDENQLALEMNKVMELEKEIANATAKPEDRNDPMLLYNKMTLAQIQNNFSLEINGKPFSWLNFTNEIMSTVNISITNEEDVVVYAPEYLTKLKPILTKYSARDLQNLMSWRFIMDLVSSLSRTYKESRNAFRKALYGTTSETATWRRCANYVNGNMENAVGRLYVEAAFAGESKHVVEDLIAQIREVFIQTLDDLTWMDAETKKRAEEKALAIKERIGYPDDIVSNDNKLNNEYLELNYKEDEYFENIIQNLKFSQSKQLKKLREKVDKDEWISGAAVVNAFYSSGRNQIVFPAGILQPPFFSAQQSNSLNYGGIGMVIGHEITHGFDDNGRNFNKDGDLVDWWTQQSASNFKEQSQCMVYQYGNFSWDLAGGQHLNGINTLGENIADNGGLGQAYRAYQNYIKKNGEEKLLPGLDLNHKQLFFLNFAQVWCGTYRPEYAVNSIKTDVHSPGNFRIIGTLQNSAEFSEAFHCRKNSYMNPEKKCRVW

SMILES | Ki [nM]
O=C(N[C@H](Cc1ccc(-c2cccc(Cl)c2)cc1)C[C@@H](O)C(=O)O)C(=O)N1CC(O)C1 [Example 4-13, (2R,4R)-5-(3′-Chlorobiphenyl-4-yl)-2-hydroxy-4-[2-(3-hydroxyazetidin-1-yl)-2-oxo-acetylamino]pentanoic acid] | 1 to 10
O=C(N[C@H](Cc1ccc(-c2cccc(Cl)c2)cc1)C[C@@H](O)C(=O)O)C(=O)N1CCC(CO)CC1 [Example 4-20, (2R,4R)-5-(3′-Chlorobiphenyl-4-yl)-2-hydroxy-4-[2-(4-hydroxymethyl-piperidin-1-yl)-2-oxo-acetylamino]pentanoic acid] | ≤ 1
O=C(N[C@H](Cc1ccc(-c2cccc(Cl)c2)cc1)C[C@@H](O)C(=O)O)C(=O)N1CCC[C@H](CO)C1 [Example 4-33, (2R,4R)-5-(3′-Chlorobiphenyl-4-yl)-2-hydroxy-4-[2-((S)-3-hydroxymethyl-piperidin-1-yl)-2-oxo-acetylamino]pentanoic acid] | 1 to 10
O=C(N[C@H](Cc1ccc(-c2cccc(Cl)c2)cc1)C[C@@H](O)C(=O)O)C(=O)N1CCCC(C(=O)O)C1 (stereo partly drawn) [Example 4-28, 1-[(1R,3R)-3-Carboxy-1-(3′-chlorobiphenyl-4-ylmethyl)-3-hydroxypropyl-aminooxalyl]-piperidine-3-carboxylic acid] | 1 to 10
CONC(=O)C(=O)N[C@H](Cc1ccc(-c2cccc(Cl)c2)cc1)C[C@@H](O)C(=O)O [Example 4-6, (2R,4R)-5-(3′-Chlorobiphenyl-4-yl)-2-hydroxy-4-(methoxyaminooxalylamino)-pentanoic acid] | 1 to 10
CC1(O)CCN(C(=O)C(=O)N[C@H](Cc2ccc(-c3cccc(Cl)c3)cc2)C[C@@H](O)C(=O)O)CC1 [Example 4-22, (2R,4R)-5-(3′-Chlorobiphenyl-4-yl)-2-hydroxy-4-[2-(4-hydroxy-4-methyl-piperidin-1-yl)-2-oxo-acetylamino]pentanoic acid] | 1 to 10
O=C(NC1CONC1=O)C(=O)N[C@H](Cc1ccc(-c2cccc(Cl)c2)cc1)C[C@@H](O)C(=O)O (stereo partly drawn) [Example 4-7, (2R,4R)-5-(3′-Chlorobiphenyl-4-yl)-2-hydroxy-4-[(3-oxo-isoxazolidin-4-ylaminooxalyl)-amino]pentanoic acid] | 1 to 10
O=C(N[C@H](Cc1ccc(-c2cccc(Cl)c2)cc1)C[C@@H](O)C(=O)O)C(=O)N1CCC(CCO)CC1 [Example 4-24, (2R,4R)-5-(3′-Chlorobiphenyl-4-yl)-2-hydroxy-4-{2-[4-(2-hydroxyethyl)-piperidin-1-yl]-2-oxo-acetylamino}pentanoic acid] | 1 to 10
O=C(N[C@H](Cc1ccc(-c2cccc(Cl)c2)cc1)C[C@@H](O)C(=O)O)C(=O)N1CC2(COC2)C1 [Example 4-50, (2R,4R)-5-(3′-Chlorobiphenyl-4-yl)-2-hydroxy-4-[2-(2-oxa-6-aza-spiro[3.3]hept-6-yl)-2-oxo-acetylamino]pentanoic acid] | 10 to 31.6
CCOCCN1CCN(C(=O)C(=O)N[C@H](Cc2ccc(-c3cccc(Cl)c3)cc2)C[C@@H](O)C(=O)O)CC1 [Example 4-38, (2R,4R)-5-(3′-Chlorobiphenyl-4-yl)-4-{2-[4-(2-ethoxy-ethyl)-piperazin-1-yl]-2-oxo-acetylamino}-2-hydroxypentanoic acid] | 10 to 31.6
N#Cc1ccccc1N1CCN(C(=O)C(=O)N[C@H](Cc2ccc(-c3cccc(Cl)c3)cc2)C[C@@H](O)C(=O)O)CC1 [Example 4-37, (2R,4R)-5-(3′-Chlorobiphenyl-4-yl)-4-{2-[4-(2-cyano-phenyl)-piperazin-1-yl]-2-oxo-acetylamino}-2-hydroxypentanoic acid] | 10 to 31.6
O=C(N[C@H](Cc1ccc(-c2cccc(Cl)c2)cc1)C[C@@H](O)C(=O)O)C(=O)N1CC(O)CO1 (stereo partly drawn) [Example 4-49, (2R,4R)-5-(3′-Chlorobiphenyl-4-yl)-2-hydroxy-4-[2-(4-hydroxyisoxazolidin-2-yl)-2-oxo-acetylamino]pentanoic acid] | 1 to 10
O=C(N[C@H](Cc1ccc(-c2cccc(Cl)c2)cc1)C[C@@H](O)C(=O)O)C(=O)N1CCOCC1 [Example 4-44, (2R,4R)-5-(3′-Chlorobiphenyl-4-yl)-2-hydroxy-4-(2-morpholin-4-yl-2-oxo-acetylamino)pentanoic acid] | 1 to 10
C[C@@](CO)(C[C@@H](Cc1ccc(-c2cccc(Cl)c2)cc1)NC=O)C(=O)O [Example 13, (2S,4R)-5-(3′-Chlorobiphenyl-4-yl)-4-formylamino-2-hydroxymethyl-2-methyl-pentanoic Acid] | 1 to 10
O=C(NNc1ccc([N+](=O)[O-])cc1[N+](=O)[O-])C(=O)N[C@H](Cc1ccc(-c2cccc(Cl)c2)cc1)C[C@@H](O)C(=O)O [Example 5, (2R,4R)-5-(3′-Chlorobiphenyl-4-yl)-4-{[N′-(2,4-dinitrophenyl)-hydrazinooxalyl]-amino}-2-hydroxypentanoic Acid] | ≤ 1

Continued, values first:

Ki [nM] | SMILES
1 to 10 | O=C(NNC(=O)c1ccco1)C(=O)N[C@H](Cc1ccc(-c2cccc(Cl)c2)cc1)C[C@@H](O)C(=O)O [Example 8-5, (2R,4R)-5-(3′-Chlorobiphenyl-4-yl)-4-{2-[N′-(furan-2-carbonyl)-hydrazino]-2-oxo-acetylamino}-2-hydroxypentanoic acid]
1 to 10 | O=C(NNc1cc(O)ncn1)C(=O)N[C@H](Cc1ccc(-c2cccc(Cl)c2)cc1)C[C@@H](O)C(=O)O [Example 6-5, (2R,4R)-5-(3′-Chlorobiphenyl-4-yl)-2-hydroxy-4-{[N′-(6-hydroxy-pyrimidin-4-yl)-hydrazinooxalyl]amino}-pentanoic acid]
1 to 10 | O=C(NNC(=O)c1ccc(Cl)nc1)C(=O)N[C@H](Cc1ccc(-c2cccc(Cl)c2)cc1)C[C@@H](O)C(=O)O [Example 8-2, (2R,4R)-5-(3′-Chlorobiphenyl-4-yl)-4-{2-[N′-(6-chloro-pyridine-3-carbonyl)-hydrazino]-2-oxo-acetylamino}-2-hydroxypentanoic acid]
10 to 31.6 | CC(C)CNNC(=O)C(=O)N[C@H](Cc1ccc(-c2cccc(Cl)c2)cc1)C[C@@H](O)C(=O)O [Example 6-2, (2R,4R)-5-(3′-Chlorobiphenyl-4-yl)-2-hydroxy-4-[(N′-isobutylhydrazinooxalyl)-amino]pentanoic acid]
10 to 31.6 | O=C(COCc1ccccc1)N[C@H](Cc1ccc(-c2cccc(Cl)c2)cc1)C[C@@H](O)C(=O)O [Example 10-6, (2R,4R)-4-(2-Benzyloxy-acetylamino)-5-(3′-chlorobiphenyl-4-yl)-2-hydroxy-pentanoic acid]
10 to 31.6 | O=C(NNC1=NCCN1)C(=O)N[C@H](Cc1ccc(-c2cccc(Cl)c2)cc1)C[C@@H](O)C(=O)O [Example 6-6, (2R,4R)-5-(3′-Chlorobiphenyl-4-yl)-4-{[N′-(4,5-dihydro-1H-imidazol-2-yl)-hydrazinooxalyl]-amino}-2-hydroxypentanoic acid]
1 to 10 | O=C(COc1cccnc1)N[C@H](Cc1ccc(-c2cccc(Cl)c2)cc1)C[C@@H](O)C(=O)O [Example 10-5, (2R,4R)-5-(3′-Chlorobiphenyl-4-yl)-2-hydroxy-4-[2-(pyridin-3-yloxy)-acetylamino]-pentanoic acid]
1 to 10 | O=C(NNC(=O)c1ccncc1)C(=O)N[C@H](Cc1ccc(-c2cccc(Cl)c2)cc1)C[C@@H](O)C(=O)O [Example 8-4, (2R,4R)-5-(3′-Chlorobiphenyl-4-yl)-2-hydroxy-4-{2-oxo-2-[N′-(pyridine-4-carbonyl)-hydrazino]acetylamino}pentanoic acid]
